Experimental data reported in PubChem BioAssay (NCI).
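Exposure lasted 48 hours, with cells grown in 96-well plates and compounds tested at five concentrations. At the GI50, growth is halved. Definition used: TGI = concentration required for complete inhibition of growth.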

Legend:
Experiment in all cases: growth of human tumour cells (NCI), 48 h
786-0 renal = system: 786-0 renal
A498 renal = system: A498 renal
A549 NSCLC = system: A549 NSCLC
ACHN renal = system: ACHN renal
BT-549 breast = system: BT-549 breast
CAKI-1 renal = system: CAKI-1 renal
CCRF-CEM leukemia = system: CCRF-CEM leukemia
COLO 205 colon = system: COLO 205 colon
DU-145 prostate = system: DU-145 prostate
EKVX NSCLC = system: EKVX NSCLC
HCC-2998 colon = system: HCC-2998 colon
HCT-116 colon = system: HCT-116 colon
HCT-15 colon = system: HCT-15 colon
HL-60(TB) leukemia = system: HL-60(TB) leukemia
HOP-62 NSCLC = system: HOP-62 NSCLC
HOP-92 NSCLC = system: HOP-92 NSCLC
HS 578T breast = system: HS 578T breast
HT29 colon = system: HT29 colon
IGROV1 ovarian = system: IGROV1 ovarian
K-562 leukemia = system: K-562 leukemia
KM12 colon = system: KM12 colon
LOX IMVI melanoma = system: LOX IMVI melanoma
M14 melanoma = system: M14 melanoma
MALME-3M melanoma = system: MALME-3M melanoma
MCF7 breast = system: MCF7 breast
MDA-MB-231 breast = system: MDA-MB-231 breast
MDA-MB-435 = system: MDA-MB-435
MOLT-4 leukemia = system: MOLT-4 leukemia
NCI-H226 lung = system: NCI-H226 lung
NCI-H23 lung = system: NCI-H23 lung
NCI-H460 lung = system: NCI-H460 lung
NCI-H522 lung = system: NCI-H522 lung
NCI/ADR-RES ovarian = system: NCI/ADR-RES ovarian
OVCAR-3 ovarian = system: OVCAR-3 ovarian
OVCAR-4 ovarian = system: OVCAR-4 ovarian
OVCAR-5 ovarian = system: OVCAR-5 ovarian
OVCAR-8 ovarian = system: OVCAR-8 ovarian
PC-3 prostate = system: PC-3 prostate
RPMI-8226 leukemia = system: RPMI-8226 leukemia
RXF 393 renal = system: RXF 393 renal
SF-268 CNS = system: SF-268 CNS
SF-295 CNS = system: SF-295 CNS
SF-539 CNS = system: SF-539 CNS
SK-MEL-2 melanoma = system: SK-MEL-2 melanoma
SK-MEL-28 melanoma = system: SK-MEL-28 melanoma
SK-MEL-5 melanoma = system: SK-MEL-5 melanoma
SN12C renal = system: SN12C renal
SNB-19 CNS = system: SNB-19 CNS
SNB-75 CNS = system: SNB-75 CNS
SR leukemia = system: SR leukemia
SW-620 colon = system: SW-620 colon
T-47D breast = system: T-47D breast
TK-10 renal = system: TK-10 renal
U251 CNS = system: U251 CNS
UACC-257 melanoma = system: UACC-257 melanoma
UACC-62 melanoma = system: UACC-62 melanoma
UO-31 renal = system: UO-31 renal
SK-OV-3 ovarian = system: SK-OV-3 ovarian

`CC(=O)Oc1c(-c2ccccc2)oc2ccccc12` showed a TGI (786-0 renal) of 14.2 µM, a TGI (A498 renal) of 9.72 µM and a TGI (A549 NSCLC) of 3.33 µM. The TGI (ACHN renal) was 3.28 µM, the TGI (BT-549 breast) was 7.05 µM and the TGI (CAKI-1 renal) was 2.62 µM. It also gave a TGI (CCRF-CEM leukemia) of 3.93 µM, a TGI (COLO 205 colon) of 3.77 µM and a TGI (DU-145 prostate) of 13.9 µM. It also gave a TGI (EKVX NSCLC) of 3.99 µM, a TGI (HCC-2998 colon) of 2.8 µM and a TGI (HCT-116 colon) of 4.12 µM. The TGI (HCT-15 colon) was 5.97 µM, the TGI (HL-60(TB) leukemia) was 2.69 µM and the TGI (HOP-62 NSCLC) was 6 µM. It also gave a TGI (HOP-92 NSCLC) of 5.4 µM, a TGI (HS 578T breast) of 6.38 µM and a TGI (HT29 colon) of 5.75 µM. For the same compound, the TGI (IGROV1 ovarian) was 6.56 µM, the TGI (K-562 leukemia) was 4.13 µM and the TGI (KM12 colon) was 2.35 µM. The TGI (LOX IMVI melanoma) was 1.41 µM, the TGI (M14 melanoma) was 5.17 µM and the TGI (MALME-3M melanoma) was 5.54 µM. For the same compound, the TGI (MCF7 breast) was 4.3 µM, the TGI (MDA-MB-231 breast) was 2.86 µM and the TGI (MDA-MB-435) was 6.95 µM. The TGI (MOLT-4 leukemia) was 4.53 µM, the TGI (NCI-H226 lung) was 5.2 µM and the TGI (NCI-H23 lung) was 4.15 µM. The TGI (NCI-H460 lung) was 2.44 µM, the TGI (NCI-H522 lung) was 5 µM and the TGI (NCI/ADR-RES ovarian) was 9.29 µM. For the same compound, the TGI (OVCAR-3 ovarian) was 6.02 µM, the TGI (OVCAR-4 ovarian) was 9.85 µM and the TGI (OVCAR-5 ovarian) was 3.66 µM. It also gave a TGI (OVCAR-8 ovarian) of 12.5 µM, a TGI (PC-3 prostate) of 4.55 µM and a TGI (RPMI-8226 leukemia) of 2.67 µM. It also gave a TGI (RXF 393 renal) of 3.59 µM, a TGI (SF-268 CNS) of 6.3 µM and a TGI (SF-295 CNS) of 2.58 µM. It also gave a TGI (SF-539 CNS) of 2.86 µM, a TGI (SK-MEL-2 melanoma) of 4.35 µM and a TGI (SK-MEL-28 melanoma) of 6.56 µM. It also gave a TGI (SK-MEL-5 melanoma) of 2.8 µM, a TGI (SN12C renal) of 4.68 µM and a TGI (SNB-19 CNS) of 11.6 µM. For the same compound, the TGI (SNB-75 CNS) was 6.35 µM, the TGI (SR leukemia) was 1.59 µM and the TGI (SW-620 colon) was 11.8 µM. It also gave a TGI (T-47D breast) of 5.9 µM, a TGI (TK-10 renal) of 14 µM and a TGI (U251 CNS) of 2.76 µM. The TGI (UACC-257 melanoma) was 6.04 µM, the TGI (UACC-62 melanoma) was 8.49 µM and the TGI (UO-31 renal) was 3.96 µM.

In the case of `CCN(CC)Cc1cc(Nc2c3ccc(Cl)cc3nc3ccc(OC)cc23)ccc1O`, the GI50 (786-0 renal) is reported as 4.21 µM, the TGI (786-0 renal) is reported as 15.2 µM and the GI50 (A498 renal) is reported as 13.9 µM. The TGI (A498 renal) was 27.5 µM, the GI50 (A549 NSCLC) was 5.59 µM and the TGI (A549 NSCLC) was 21.2 µM. It also gave a GI50 (BT-549 breast) of 17.2 µM, a TGI (BT-549 breast) of 31.4 µM and a GI50 (CAKI-1 renal) of 2.89 µM. It also gave a TGI (CAKI-1 renal) of 11.7 µM, a GI50 (CCRF-CEM leukemia) of 3.86 µM and a TGI (CCRF-CEM leukemia) of 55.6 µM. It also gave a GI50 (COLO 205 colon) of 1.79 µM, a TGI (COLO 205 colon) of 3.34 µM and a GI50 (DU-145 prostate) of 5.01 µM. The TGI (DU-145 prostate) was 18.3 µM, the GI50 (EKVX NSCLC) was 12 µM and the TGI (EKVX NSCLC) was 34.7 µM. It also gave a GI50 (HCC-2998 colon) of 2.16 µM, a TGI (HCC-2998 colon) of 3.78 µM and a GI50 (HCT-116 colon) of 2.34 µM. The TGI (HCT-116 colon) was 6.32 µM, the GI50 (HL-60(TB) leukemia) was 5.32 µM and the TGI (HL-60(TB) leukemia) was 25.5 µM. It also gave a GI50 (HOP-62 NSCLC) of 2.89 µM, a TGI (HOP-62 NSCLC) of 10.9 µM and a GI50 (HOP-92 NSCLC) of 16.5 µM. For the same compound, the TGI (HOP-92 NSCLC) was 31 µM, the GI50 (HS 578T breast) was 12.2 µM and the TGI (HS 578T breast) was 33.1 µM. The GI50 (HT29 colon) was 2.26 µM, the TGI (HT29 colon) was 5.03 µM and the GI50 (IGROV1 ovarian) was 5.11 µM. It also gave a TGI (IGROV1 ovarian) of 21.1 µM, a GI50 (K-562 leukemia) of 2.65 µM and a TGI (K-562 leukemia) of 6.39 µM. It also gave a GI50 (KM12 colon) of 3.17 µM, a TGI (KM12 colon) of 14.5 µM and a GI50 (LOX IMVI melanoma) of 2 µM. For the same compound, the TGI (LOX IMVI melanoma) was 3.82 µM, the GI50 (M14 melanoma) was 1.88 µM and the TGI (M14 melanoma) was 3.43 µM. It also gave a GI50 (MALME-3M melanoma) of 2.13 µM, a TGI (MALME-3M melanoma) of 4.21 µM and a GI50 (MCF7 breast) of 1.6 µM. It also gave a TGI (MCF7 breast) of 4.04 µM, a GI50 (MDA-MB-231 breast) of 4.28 µM and a TGI (MDA-MB-231 breast) of 15.1 µM. The GI50 (MDA-MB-435) was 2.29 µM, the TGI (MDA-MB-435) was 6 µM and the GI50 (MOLT-4 leukemia) was 4.14 µM. It also gave a TGI (MOLT-4 leukemia) of 12.2 µM, a GI50 (NCI-H226 lung) of 7.28 µM and a TGI (NCI-H226 lung) of 21.4 µM. It also gave a GI50 (NCI-H23 lung) of 6.86 µM, a TGI (NCI-H23 lung) of 23.3 µM and a GI50 (NCI-H460 lung) of 4.03 µM. For the same compound, the TGI (NCI-H460 lung) was 14.4 µM, the GI50 (NCI-H522 lung) was 4.62 µM and the TGI (NCI-H522 lung) was 16.5 µM. It also gave a GI50 (NCI/ADR-RES ovarian) of 4.7 µM, a TGI (NCI/ADR-RES ovarian) of 17.8 µM and a GI50 (OVCAR-3 ovarian) of 7.59 µM. The TGI (OVCAR-3 ovarian) was 22.7 µM, the GI50 (OVCAR-4 ovarian) was 3.66 µM and the TGI (OVCAR-4 ovarian) was 13.1 µM. It also gave a GI50 (OVCAR-8 ovarian) of 3.68 µM, a TGI (OVCAR-8 ovarian) of 12.6 µM and a GI50 (PC-3 prostate) of 5.76 µM. The TGI (PC-3 prostate) was 22 µM, the GI50 (RPMI-8226 leukemia) was 2.8 µM and the TGI (RPMI-8226 leukemia) was 6.63 µM. The GI50 (RXF 393 renal) was 1.73 µM, the TGI (RXF 393 renal) was 4.36 µM and the GI50 (SF-268 CNS) was 4.33 µM. The TGI (SF-268 CNS) was 18.5 µM, the GI50 (SF-295 CNS) was 3.5 µM and the TGI (SF-295 CNS) was 17.1 µM. For the same compound, the GI50 (SK-MEL-2 melanoma) was 2.36 µM, the TGI (SK-MEL-2 melanoma) was 4.6 µM and the GI50 (SK-MEL-28 melanoma) was 1.77 µM. It also gave a TGI (SK-MEL-28 melanoma) of 3.26 µM, a GI50 (SK-MEL-5 melanoma) of 2.9 µM and a TGI (SK-MEL-5 melanoma) of 10.3 µM. It also gave a GI50 (SK-OV-3 ovarian) of 11.1 µM, a TGI (SK-OV-3 ovarian) of 23.4 µM and a GI50 (SN12C renal) of 5.61 µM. For the same compound, the TGI (SN12C renal) was 18.3 µM, the GI50 (SNB-19 CNS) was 6.4 µM and the TGI (SNB-19 CNS) was 19.3 µM. For the same compound, the GI50 (SNB-75 CNS) was 5.07 µM, the TGI (SNB-75 CNS) was 18.9 µM and the GI50 (SR leukemia) was 3.32 µM. The TGI (SR leukemia) was 8.99 µM, the GI50 (SW-620 colon) was 3.25 µM and the TGI (SW-620 colon) was 11.1 µM. For the same compound, the GI50 (T-47D breast) was 2.41 µM, the TGI (T-47D breast) was 7.25 µM and the GI50 (TK-10 renal) was 7.09 µM. The TGI (TK-10 renal) was 20 µM, the GI50 (U251 CNS) was 3.04 µM and the TGI (U251 CNS) was 13.2 µM. The GI50 (UACC-257 melanoma) was 2.17 µM, the TGI (UACC-257 melanoma) was 3.89 µM and the GI50 (UACC-62 melanoma) was 2.11 µM. It also gave a TGI (UACC-62 melanoma) of 4.31 µM, a GI50 (UO-31 renal) of 4.16 µM and a TGI (UO-31 renal) of 16.1 µM.
